# Measured values as given in publication PMC10623575, “Discovery of Potent and Selective CB2 Agonists Utilizing a Function-Based Computational Screening Protocol” (ACS Chemical Neuroscience, 2023).
# Like-named read-outs stand apart in the source and are kept apart here.
# Legend:
# CB2 receptor [1] = molecular target: T1, CB2 receptor (Homo sapiens, UniProt P34972); assay: Calcium mobilization assay, antagonist mode (CP55940 challenge), CHO expressing CB2; assay type: cell-based; conditions: for SI, selectivity index for the CB2, SI = IC50(CB1)/IC50(CB2): antagonist mode
# T1 construct: expressed in transfected cells
# Description: (§1) Chinese hamster ovarian (CHO) cells collected from the American Type Culture Collection were maintained in Ham’s F-12K (Kaighn’s) supplemented with 100 mg/L streptomycin, 100 mg/L penicillin, and 10% fetal bovine serum (FBS) in a humidified atmosphere of 5% CO2 at 37 °C. CHO cells were co-transfected with plasmids encoding CB1 or CB2 and Gα16 by electroporation. To establish stable cell lines, transfected cells were seeded on 10 cm dishes with 40 μg/mL blasticidin and 1 mg/mL G418 in culture medium after 24 h. The selection medium was substituted once every 3 days until colonies formed. A solitary colony was obtained, propagated, and assessed using a calcium mobilization assay to verify the function and expression of the transfected genes.
# (§2) 3 × 10^4 cells/well were employed to seed cells onto 96-well plates, which were subsequently incubated throughout the night. Cells were then treated with 2 μM Fluo-4 AM in HBSS (0.3 mM Na2HPO4, 5.4 mM KCl, 4.2 mM NaHCO3, 0.4 mM KH2PO4, 0.5 mM MgCl2, 1.3 mM CaCl2, 137 mM NaCl, 0.6 mM MgSO4, 250 μM sulfinpyrazone, and 5.6 mM D-glucose, pH 7.4) for 45 min at 37 °C. […] Meanwhile, the change of intracellular calcium was measured at an excitation wavelength of 525 and 485 nm. For antagonist mode, the extra dye was washed out and 50 μL of HBSS with test compounds, DMSO (negative control), or AM630 (positive control) was introduced. […] The change of intracellular calcium was captured at an excitation wavelength of 525 and 485 nm. To be noticed, each experiment has been independently replicated three times, with three repetitions and eight gradients each time.
# (§3) The collected data were processed with GraphPad Prism software (GraphPad). […] Means ± SEM were computed utilizing this software. The analyses were evaluated by the Student t test. When the p value is smaller than 0.05, the result is statistically significant.
# CB1 receptor [2] = molecular target: T2, CB1 receptor (Homo sapiens, UniProt P21554); assay: Calcium mobilization assay, agonist mode, CHO expressing CB1 and Gα16; assay type: cell-based; conditions: agonist activity, CHO expressing CB1, mean ± SEM; read-out: CB1 EC50
# Description: as §1
# (§4) 3 × 10^4 cells/well were employed to seed cells onto 96-well plates, which were subsequently incubated throughout the night. […] For antagonist mode, the extra dye was washed out and 50 μL of HBSS with test compounds, DMSO (negative control), or AM630 (positive control) was introduced. […] To be noticed, each experiment has been independently replicated three times, with three repetitions and eight gradients each time.
# as §3
# CB2 receptor [3] = molecular target: T1, CB2 receptor; assay: Calcium mobilization assay, agonist mode, CHO expressing CB2 and Gα16; assay type: cell-based; conditions: agonist activity, CHO expressing CB2, three independent assays, mean ± SEM; read-out: CB2 EC50
# Description: as §1, §4, §3
# CB1 receptor [4] = molecular target: T2, CB1 receptor; assay: Calcium mobilization assay, antagonist mode (CP55940 challenge), CHO expressing CB1; assay type: cell-based
# Description: as §1, §2, §3
# CB2 receptor [5] = molecular target: T1, CB2 receptor; conditions: representative ligands for active CB2 (Table S7); ref SI refs 3, 6, 7, 10, 11; read-out: Experimental Ki, Active CB2; cited from earlier work
# [6] = CB2 IC50, antagonist activity, CHO expressing CB2, three independent assays, mean ± SEM
# [7] = CB2 antagonist(μM) replicate 1, single independent experiment, replicate 1
# [8] = CB2 antagonist(μM) replicate 2, single independent experiment, replicate 2
# [9] = CB2 antagonist(μM) replicate3, single independent experiment, replicate 3
# [10] = antagonist activity, CHO expressing CB1, read-out: CB1 IC50
# [11] = antagonist activity, CHO expressing CB2, three independent assays, mean ± SEM, read-out: CB2 IC50
# [12] = single independent experiment, replicate 1, read-out: CB2 antagonist(μM) replicate 1
# [13] = single independent experiment, replicate 2, read-out: CB2 antagonist(μM) replicate 2
# [14] = single independent experiment, replicate 3, read-out: CB2 antagonist(μM) replicate3
# T2 sequence (P21554 whole entry): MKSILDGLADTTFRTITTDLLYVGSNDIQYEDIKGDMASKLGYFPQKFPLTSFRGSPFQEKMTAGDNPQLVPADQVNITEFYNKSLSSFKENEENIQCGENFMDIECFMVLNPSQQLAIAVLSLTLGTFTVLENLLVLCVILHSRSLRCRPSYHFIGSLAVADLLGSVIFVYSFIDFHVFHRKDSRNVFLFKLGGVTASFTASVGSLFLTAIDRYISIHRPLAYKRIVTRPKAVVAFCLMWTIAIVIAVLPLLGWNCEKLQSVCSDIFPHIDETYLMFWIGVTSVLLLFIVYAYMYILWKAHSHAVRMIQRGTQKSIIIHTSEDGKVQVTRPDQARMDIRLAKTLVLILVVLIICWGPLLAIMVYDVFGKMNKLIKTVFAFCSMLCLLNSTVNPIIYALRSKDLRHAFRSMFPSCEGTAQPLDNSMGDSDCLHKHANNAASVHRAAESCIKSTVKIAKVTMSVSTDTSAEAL
# T1 sequence (P34972 whole entry): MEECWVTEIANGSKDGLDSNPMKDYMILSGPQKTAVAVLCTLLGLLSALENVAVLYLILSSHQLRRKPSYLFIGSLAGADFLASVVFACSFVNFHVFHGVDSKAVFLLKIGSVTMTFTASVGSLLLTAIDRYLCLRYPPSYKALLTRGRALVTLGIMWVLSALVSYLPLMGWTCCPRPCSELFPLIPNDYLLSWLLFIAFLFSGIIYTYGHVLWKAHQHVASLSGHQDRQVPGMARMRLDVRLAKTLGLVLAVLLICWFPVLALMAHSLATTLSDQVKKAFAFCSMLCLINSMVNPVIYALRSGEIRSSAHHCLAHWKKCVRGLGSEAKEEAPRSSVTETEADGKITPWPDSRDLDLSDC
structure (smiles),measurement,setting,value
"COc1ccc(C(=O)c2c(C)n(CCN3CCOCC3)c3cc(I)ccc23)cc1 [AM630, reference compound]",IC50,CB2 receptor [1]; [6],0.34 ± 0.1 µM
same,IC50,CB2 receptor [1]; [7],0.153 µM
same,IC50,CB2 receptor [1]; [8],0.319 µM
same,IC50,CB2 receptor [1]; [9],0.55 µM
"COc1ccc(C=C2SC(=O)N(CC(C)C)C2=O)cc1OC(=O)C(C)(C)CCl [Compound 34, 5-((3-Isobutyl-2,4-dioxothiazolidin-5-ylidene)methyl)-2-methoxyphenyl 3-Chloro-2,2-dimethylpropanoate]",EC50,CB1 receptor [2],> 10 µM
same,EC50,CB2 receptor [3],> 10 µM
"COc1ccc(C=C2SC(=O)N(CC(C)C)C2=O)cc1OC(=O)c1cccc(Br)c1 [Compound 35, 5-((3-Isobutyl-2,4-dioxothiazolidin-5-ylidene)methyl)-2-methoxyphenyl 3-Bromobenzoate]",EC50,CB1 receptor [2],> 10 µM
same,EC50,CB2 receptor [3],> 10 µM
"COc1ccc(C=C2SC(=O)N(CC(C)C)C2=O)cc1OC(=O)c1ccc(CCl)cc1 [Compound 36, 5-((3-Isobutyl-2,4-dioxothiazolidin-5-ylidene)methyl)-2-methoxyphenyl 4-(Chloromethyl)benzoate]",EC50,CB1 receptor [2],> 10 µM
same,EC50,CB2 receptor [3],> 10 µM
"COc1ccc(/C=C2\SC(=O)N(CC(C)C)C2=O)cc1OC(=O)C12CC3CC(CC(C3)C1)C2 [Compound 37, 5-((3-Isobutyl-2,4-dioxothiazolidin-5-ylidene)methyl)-2-methoxyphenyl (3r, 5r,7r)-adamantane-1-carboxylate]",EC50,CB1 receptor [2],> 10 µM
same,EC50,CB2 receptor [3],> 10 µM
"COc1ccc(C=C2SC(=O)N(C(C)C)C2=O)cc1OC(=O)CCCCl [Compound 38, 5-((3-Isopropyl-2,4-dioxothiazolidin-5-ylidene)methyl)-2-methoxyphenyl 4-Chlorobutanoate]",IC50,CB1 receptor [4]; [10],> 10 µM
same,IC50,CB2 receptor [1]; [11],0.4 ± 0.16 µM
same,"SI, selectivity index for the CB2, SI = IC50(CB1)/IC50(CB2)",CB2 receptor [1],>25
same,IC50,CB2 receptor [1]; [12],0.715 µM
same,IC50,CB2 receptor [1]; [13],0.256 µM
same,IC50,CB2 receptor [1]; [14],0.224 µM
"CCCS(=O)(=O)Oc1cc(C=C2SC(=O)N(C(C)C)C2=O)ccc1OC [Compound 39, 5-((3-Isopropyl-2,4-dioxothiazolidin-5-ylidene)methyl)-2-methoxyphenyl Propane-1-sulfonate]",IC50,CB1 receptor [4]; [10],> 10 µM
same,IC50,CB2 receptor [1]; [11],0.33 ± 0.09 µM
same,"SI, selectivity index for the CB2, SI = IC50(CB1)/IC50(CB2)",CB2 receptor [1],23
same,IC50,CB2 receptor [1]; [12],0.445 µM
same,IC50,CB2 receptor [1]; [13],0.115 µM
same,IC50,CB2 receptor [1]; [14],0.44 µM
"CCCS(=O)(=O)Oc1cc(C=C2SC(=O)N(CC(C)C)C2=O)ccc1OC [Compound 40, 5-((3-Isobutyl-2,4-dioxothiazolidin-5-ylidene)methyl)-2-methoxyphenyl Propane-1-sulfonate]",IC50,CB1 receptor [4],> 10 µM
same,IC50,CB2 receptor [1]; [6],2.99 ± 1.42 µM
same,IC50,CB2 receptor [1]; [7],2.64 µM
same,IC50,CB2 receptor [1]; [8],5.6 µM
same,IC50,CB2 receptor [1]; [9],0.728 µM
same,"SI, selectivity index for the CB2, SI = IC50(CB1)/IC50(CB2)",CB2 receptor [1],> 3
CCCCCn1cc(C(=O)C2C(C)(C)C2(C)C)c2ccccc21 [UR-144],Ki,CB2 receptor [5],1.8 nM
